Experimental data from US20150087722A1, “TREATMENT FOR BREAST TUMOR CELL METASTASIS” (China Medical University, priority 2012, published 2015).

What was measured:
[1] = test system: cells stimulated by 10 ng/mL TNF-α; test: wound scratching assay of cells stimulated by TNF-α; assay type: cell-based; details: 10 and 20 μM, 24 h
Description: In the wound scratching assay for observing cell migration, the cells MDA-MB-231 (3×10^5) were planted in a 12-well plate, and the next day the cells were washed with PBS twice. The original culture medium then was replaced by 1% FBS cell culture medium. The next day a space was scratched at the bottom of the well. The cell culture medium was removed and the cells were washed with PBS twice. 1% FBS cell culture medium and the compound II of different concentrations were added and photographs were taken after 0, 12, 24 and 36 h so as to observe migration of cells. After the reaction, the cells were fixed for 30 min using 75% ice alcohol. After the alcohol was completely volatilized, the cells were stained with Giemsa Stain. The migration number of cells was counted in three random fields (200×) under the microscope (Lin et al., 2008). […] After the breast tumor cells were treated for 0, 12, 24 and 36 h, the quantitative result of effect of the compound II on metastasis of breast tumor cells MDA-MD-231 was observed, and the data results were represented by mean±SD values, where n=3. FIG. 19 illustrates the effect of the compound II in different doses on migration of cells stimulated by 10 ng/mL TNF-α and detected by the wound scratching assay, where the cells were observed under a microscope. […]

[2] = test system: Liver Tumor Cell (Huh-7 cell strain); test: MTT cell viability assay; assay type: cell-based; details: Homo sapiens
[3] = test system: EMT-related proteins in breast tumor cells MCF-7; test: western blotting of EMT-related proteins; assay type: cell-based, human; details: MCF-7, 10, 15 and 20 μM, 24 h, with dose increasing
Description: (§1) FIG. 2A illustrates the expression results of EMT-related proteins in breast tumor cells MDA-MB-231 after the breast tumor cells MDA-MB-231 have been respectively cultured under compound II having concentrations of 0, 0.5, 1 and 2 μM for 24 h; and FIG. 2B illustrates the expression results of EMT-related proteins in breast tumor cells MCF-7 after the breast tumor cells MCF-7 have been respectively cultured under the compound II having concentrations of 0, 10, 15 and 20 μM for 24 h. FIG. 3A illustrates the western blotting results of EMT-related proteins in the breast tumor cells MDA-MB-468, where the breast tumor cells MDA-MB-468 are treated with the compound I having concentrations of 0, 0.5, 1 and 2 μM for 24 h, and FIG. 3B illustrates the western blotting results of EMT-related proteins in the breast tumor cells MDA-MB-435, where the breast tumor cells MDA-MB-435 are treated with the compound I having concentrations of 0, 2.5, 5 and 7.5 μM for 24 h. FIG. 4 illustrates the western blotting results of EMT-related proteins in the human normal breast cells MCF-10A stimulated by TNF-α/TGF-β, where the human normal breast cells MCF-10A are treated with the compound I having concentrations of 2 μM for 24 h. The human normal breast cells stimulated by TNF-α/TGF-β can cause TNF-α/TGF-β-induced EMT in the human normal breast cells MCF-10A. The steps of western blotting include: washing cells with PBS twice at 4° C.; adding a lysis buffer and rubbing the cells by a rubbr policeman so as to lyse cells; putting the lysed cell solution into a 1.5 ml microcentrifuge tube and shaking for 1 min; centrifuging at 12000 rpm for 10 min and taking the supernatant; measuring concentration of the protein through a Bio-Rad protein assay kit; and storing the remained extracted protein solution at −70° C.; taking 100 μg protein solution and adding a SDS/protein loading buffer having the same volume, where the SDS/protein loading buffer has a concentration two times larger than the protein solution; boiling the mixture of the protein solution and the SDS/protein loading buffer at 100° C. for 10 min; cooling and loading the protein samples in each hole of gel; adjusting the voltage to 100 V and running the protein samples on the gel until the tracking dye in the sample buffer reaches the bottom of the gel; and subsequently transferring the protein from the gel using electrophoresis. A PVDF membrane was soaked in methanol until the paper was totally wet. The paper was arranged in a transfer tank placed in a 4° C. ice box, and the protein transfer was performed at a current of […] for 4 h. The PVDF membrane was then taken out, placed in a PBS blocking solution including 1% BSA and shaken for 2 h. Then the PVDF membrane was placed in a blocking solution including a primary antibody and slowly shaken at 100 rpm for 1 h at the room temperature. Subsequently the PVDF membrane was washed with PBST for third times, each time for 3-5 min. According to different […] and different dilution ratios, the PVDF membrane was shaken for 2 h on a horizontal rotator and then washed with PBST for three times. Then luminescence image equipment was used, where the PVDF was placed onto a black metal plate by a plastic pincer and the face including protein was upwards, a 1:1 mixed Chemiluminesent Substrate was added into the membrane and the exposure time depends on the fluorescence intensity of antibodies.

[4] = test system: Normal Keratinocyte Cell (HaCaT cell strain); test: MTT cell viability assay; assay type: cell-based; details: Homo sapiens
[5] = test system: EMT-related proteins in breast tumor cells MDA-MB-435; test: western blotting of EMT-related proteins; assay type: cell-based, human; details: MDA-MB-435, 2.5, 5 and 7.5 μM, 24 h, with dose increasing
Description: as §1

[6] = test system: EMT-related proteins in breast tumor cells MDA-MB-468; test: western blotting of EMT-related proteins; assay type: cell-based, human; details: MDA-MB-468, 0.5, 1 and 2 μM, 24 h, with dose increasing
Description: as §1

SMILES: COC1=C(OC)C(=O)C(C)=C(C)C1=O [compound II]
- cell migration [1]: not obvious
- IC50 [2]: 15.1 µM
- expression amount of E-cadherin, p-β-catenin and occludin [3]: increased
- expression amount of proteins facilitating tumor cell proliferation (Twist, Snail, vimentin, β-catenin) [3]: decreased
- IC50 [4]: 35.2 µM

SMILES: COC1=C(OC)C(=O)C(C)=CC1=O [compound I]
- expression amount of E-cadherin and occludin [5]: increased
- expression amount of proteins facilitating tumor cell proliferation (Snail, vimentin, β-catenin) [5]: decreased
- expression amount of E-cadherin and occludin [6]: increased
- expression amount of proteins facilitating tumor cell proliferation (Snail, vimentin, β-catenin) [6]: decreased
